Test results taken from PubChem BioAssay AID1288 (Columbia University Molecular Screening Center, 2008).
Calls of active or inactive are those of the source. How the calls were made is not given here.

Assay: E-selectin induction blockers, endothelial cells – imaging, retest plus dose response, cell count, confirmation (AID 1288);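 further: 0% = stimulated vehicle wells and 100% = unstimulated vehicle wells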
Conditions: human endothelial cells, TNFa-induced E-selectin, imaging; at 2 µM; hits give high values

Row | SMILES | inhibition
1 | CN(C)S(=O)(=O)c1ccc(NS(=O)(=O)/C=C/c2ccccc2)cc1 | 0.79% (inactive)
2 | COc1ccc2c(c1)C1CC(C)(NC(=O)C1S(=O)(=O)c1ccc(F)cc1)O2 (stereo not drawn) | 28.9% (inactive)
3 | CC(C(=O)O)C1SC(=O)NC1=O (stereo not drawn) | 12.7% (inactive)
4 | Cn1c(NCCN2CCCCC2)cc(=O)n(C)c1=O | 22.7% (inactive)
5 | COc1ccc(C(=O)/C=C/Nc2ccc([N+](=O)[O-])cc2C)c(OC)c1 | 26.8% (inactive)
6 | CCOC(=O)C1CCCN(c2ncnc3c2cnn3-c2ccc(Cl)cc2)C1 (stereo not drawn) | 38.5% (inactive)
7 | Cc1ccc2nc(-c3cccc(NC(=O)c4ccc5c(c4)OCCO5)c3)oc2c1 | 4.99% (inactive)
8 | O=C(CSc1ncccn1)NCc1ccccc1Cl | 32.9% (inactive)
9 | O=C(Cn1ncc2c(=O)oc3ccccc3c21)N1CCc2ccccc2C1 | 9.96% (inactive)
10 | CC1CCN(S(=O)(=O)c2ccc(NC(=O)CSc3ncccc3C(=O)O)cc2)CC1 | 5.02% (inactive)
11 | CN(C(=S)Nc1ccc(Oc2ccccc2)cc1)c1ccc(O)cc1 | 12.6% (inactive)
12 | CCn1c(=O)cc(SCC(=O)N2CCN(C3CCCCC3)CC2)c2ccccc21 | 16.9% (inactive)
13 | O=Cc1ccc(OCc2ccccn2)cc1 | 15.8% (inactive)
14 | O=C(/C=C/c1ccccc1)N1CCC(Cc2ccccc2)CC1 | 9.46% (inactive)
15 | O=C(C1CCN(S(=O)(=O)c2cnc[nH]2)CC1)N1CCN(c2ncccn2)CC1 | 31.7% (inactive)
16 | Cc1cccc(C(=O)NNC(=O)Nc2ccccc2)c1 | -2.06% (inactive)
17 | Cc1ccc(-n2ncc3c(=O)n(CC(=O)N4CCCCCC4)cnc32)cc1 | -0.4% (inactive)
18 | Cc1nc2c(sc3nc4c(cc32)COC(C)(C)C4)c(=O)o1 | 6.35% (inactive)
19 | Cc1ccc2cc3c(NC(=O)C(C)C)nn(C)c3nc2c1 | 9.56% (inactive)
20 | C=CCn1c(=O)c2ccccc2n2c(SCC(=O)N3CCCc4ccccc43)nnc12 | 6.51% (inactive)
21 | CCOC(=O)N1CCC(N2CCN(S(=O)(=O)c3ccc(NC(C)=O)cc3)CC2)CC1 | 5.13% (inactive)
22 | Cc1ccc(C)c(NC(=O)CSc2nnc([C@@H](N)Cc3ccccc3)o2)c1 | 13.6% (inactive)
23 | O=C(Nc1ccccc1)N(CCc1ccncc1)C1CCCCC1 | 5.75% (inactive)
24 | COCCCNC(=S)N1CCN(c2ccc([N+](=O)[O-])cc2)CC1 | 20% (inactive)
25 | COc1ccc(C(=O)OCCNC(=O)c2c(Cl)nc3ccccn23)cc1 | 3.04% (inactive)

Row | SMILES | inhibition
26 | Cc1cccc(NC(=O)CCSc2nc(C)cc(C)n2)c1 | 4.57% (inactive)
27 | CCOC(=O)CSc1nc2cc(OC)ccc2cc1C#N | 11.6% (inactive)
28 | CS(=O)(=O)C1=NSC2=NC(=O)/C(=C\c3cccn3-c3ccc(Cl)cc3)C(=N)N21 | 17.3% (inactive)
29 | Cc1ccc(NC(=O)CSc2nc3ccccc3c3nc(CCc4c(C)n[nH]c4C)nn23)cc1F | 47.2% (inactive)
30 | Cc1ccc(/C=C2\SC(N)=NC2=O)s1 | 1.87% (inactive)
31 | CCS(=O)(=O)N1CCCC(C(=O)NCc2cccc(OC)c2)C1 (stereo not drawn) | 12.7% (inactive)
32 | CCOC(=O)CCc1nc2ccccc2[nH]c1=O | 15.7% (inactive)
33 | CCOC(=O)N(c1ccccc1)P1(=S)OCCO1 | 10.4% (inactive)
34 | Cc1nc2c(ccc3nc(NC(=O)c4ccc5c(c4)OCCO5)sc32)s1 | 3.48% (inactive)
35 | C1=C(c2ccc(-c3ccccc3)cc2)Nc2ncnn2C1c1ccco1 (stereo not drawn) | 26.2% (inactive)
36 | CCOC(=O)C(CC)n1nc(C)n2c(cc3sccc32)c1=O (stereo not drawn) | 16.1% (inactive)
37 | O=C(Nc1ccccc1C(=O)N/N=C/c1ccco1)c1ccc(F)cc1 | 10.5% (inactive)
38 | Cc1ccc(/C([O-])=C(/C(=S)NCc2ccccc2)[n+]2cccc(CO)c2)cc1[N+](=O)[O-] | -5.81% (inactive)
39 | CC(C)C(=O)Nc1cc(=O)[nH]c2ncnn12 | 10.9% (inactive)
40 | CCS(=O)(=O)NCC(c1ccco1)N1CCN(c2ccccc2)CC1 (stereo not drawn) | 0.44% (inactive)
41 | CCC(C(=O)OC)n1c(-c2ccccc2)nc2ccccc2c1=O (stereo not drawn) | 10.1% (inactive)
42 | Cc1noc(C)c1S(=O)(=O)Nc1ccc(C(=O)NC2CCCCC2C)cc1 (stereo not drawn) | 22.8% (inactive)
43 | COc1cccc(/C=N/NC(=O)c2c(-c3ccccc3)noc2C)c1 | 4.18% (inactive)
44 | Cc1ccc(C(=O)Nc2ccc(O)cc2C(=O)O)cc1 | 3% (inactive)
45 | COc1ccc(OC)c(CN2CCN(C(=O)COc3cccc(C)c3)CC2)c1 | 9.14% (inactive)
46 | COc1ccc(C)cc1-n1nnnc1SCC(=O)Nc1cccnc1Cl | -16.5% (inactive)
47 | [O-][n+]1onc2c1C(N1CCOCC1)CCC2N1CCOCC1 (stereo not drawn) | 5.99% (inactive)
48 | COc1ccc(Cl)cc1NC(=S)NCc1ccco1 | 2.52% (inactive)
49 | COc1cc(-c2nnc(COc3ccc4ccccc4c3)o2)cc(OC)c1OC | 5.08% (inactive)
50 | COc1ccccc1N(Cc1ccccc1)S(=O)(=O)c1cccc(C(=O)Nc2ccc(C(C)=O)cc2)c1 | 14.8% (inactive)

Row | SMILES | inhibition
51 | O=[N+]([O-])c1ccc(N2CCNCC2)cc1NCC1CCCO1 (stereo not drawn) | -1.91% (inactive)
52 | COc1ccc(-n2c(SCC(=O)NCc3ccco3)nc3c([nH]c4ccccc43)c2=O)cc1 | 1.34% (inactive)
53 | O=C(Cc1ccc(-c2ccccc2)cc1)NCCN1CCOCC1 | 2.16% (inactive)
54 | CC(C)CC1NC(=O)N(CC(=O)N2CCN(S(=O)(=O)c3ccc(Cl)cc3)CC2)C1=O (stereo not drawn) | -2.35% (inactive)
55 | Fc1ccccc1SCc1nnc(-c2ccccc2Br)o1 | 9.24% (inactive)
56 | COc1ccc(-c2nc(CNS(=O)(=O)c3ccc(OC)c(OC)c3)cs2)cc1 | 8% (inactive)
57 | COc1ccccc1CNC(=O)CSc1nnc2ccc(-c3cccnc3)nn12 | 2.18% (inactive)
58 | COC(=O)CN1C(=S)N(c2ccc(Cl)cc2)C(=O)C1CC(=O)Nc1ccc(Cl)cc1 (stereo not drawn) | -1.33% (inactive)
59 | COc1cc(NC(=O)CN2CCC(C)CC2)c(C)cc1[N+](=O)[O-] | 8.41% (inactive)
60 | Fc1ccc(CNc2nc(-c3ccccc3)nc3ccccc23)cc1 | 26.5% (inactive)
61 | Cc1ccc(S(=O)(=O)Nc2ccc(NC(=O)Nc3ccc(F)cc3F)cc2)cc1 | 37.3% (inactive)
62 | COc1cccc(/C=C/C(=O)OCC(=O)Nc2ccc(Cl)c(S(=O)(=O)N(C)C)c2)c1 | 2.19% (inactive)
63 | O=C(Nc1cccs1)Nc1c(F)c(F)c(F)c(F)c1F | 1.63% (inactive)
64 | O=C(Nc1nnc(SCc2ccccc2)s1)c1cccc([N+](=O)[O-])c1 | 6.01% (inactive)
65 | O=C(Nc1cc2ccccc2oc1=O)c1ccccc1 | 7.06% (inactive)
66 | O=S1(=O)CCC(NC(=S)N2CCCCCC2)C1 (stereo not drawn) | 18.2% (inactive)
67 | Cc1noc(C)c1S(=O)(=O)N1CCC(C(=O)N2CCN(Cc3ccc4c(c3)OCO4)CC2)CC1 | 7.72% (inactive)
68 | C=CCn1c(COc2ccccc2)nnc1SCC(=O)O | 11.9% (inactive)
69 | CCCCCCOC(=O)/C=C/c1c(C)[nH]c(=O)[nH]c1=O | 30.8% (inactive)
70 | CC(C)(CO)NCC(O)Cn1cc(C=O)c2ccccc21 (stereo not drawn) | -5.31% (inactive)
71 | CCCc1[nH]nc2c1C(c1ccc(O)c(OC)c1)C(C#N)=C(N)O2 (stereo not drawn) | 16.6% (inactive)
72 | O=C(Nc1nnc(-c2ccco2)s1)C1CC1 | 1.62% (inactive)
73 | O=C(Nc1nnc(C2CC2)s1)c1cc(-c2ccccc2)nn1-c1ccccc1 | 6.68% (inactive)
74 | O=S(=O)(N1CCOCC1)N1CCN(c2ccccc2F)CC1 | -1.16% (inactive)
75 | Cc1cc(=O)oc2cc(OCC(=O)OCC(=O)NCc3ccc4c(c3)OCO4)ccc12 | 22.5% (inactive)

Row | SMILES | inhibition
76 | CCOC(=O)c1ccc(Nc2cc(C)nc(N3CCOCC3)n2)cc1 | 5.21% (inactive)
77 | CCOc1ccc(OCC)c(NC(=O)CN2CCN(c3cccc(C)c3)CC2)c1 | -3.01% (inactive)
78 | CC(=O)OC(C(=O)NCc1ccco1)c1cccnc1 (stereo not drawn) | 6.49% (inactive)
79 | COC(=O)c1cc2oc(C)cc2n1CC(=O)N1CCCc2ccccc21 | 9.68% (inactive)
80 | Brc1ccc(C2=CC(c3cccs3)n3ncnc3N2)cc1 (stereo not drawn) | 13.5% (inactive)
81 | Cc1ccc(Cc2cnc(NC(=O)/C(C#N)=C/c3ccc(-c4ccccc4[N+](=O)[O-])o3)s2)cc1 | 5.26% (inactive)
82 | Cc1cc2nc(-c3ccc(SCc4ccc(C#N)cc4)nc3)[nH]c2cc1C | 1.98% (inactive)
83 | C/C(=N\NC(=O)CN(c1ccccc1Br)S(C)(=O)=O)c1ccc2c(c1)OCCO2 | 1.65% (inactive)
84 | Cc1sc(NC(=O)c2ccco2)c(CN2CCN(c3ccccn3)CC2)c1C | 24.4% (inactive)
85 | CS(=O)(=O)c1ccc(Cl)c(NC(=O)c2ccc3ccccc3c2)c1 | 4.97% (inactive)
86 | Cc1cc(=O)[nH]c(SCC(=O)NCc2ccco2)n1 | 5.37% (inactive)
87 | CC(=O)Oc1cccc(N2C(=O)C3CC=C(Cl)CC3C2=O)c1 (stereo not drawn) | 31.6% (inactive)
88 | COc1ccc(C2N=C(N)N=C(N)N2c2ccccc2)cc1OC (stereo not drawn) | 23% (inactive)
89 | COc1cccc(-c2cc3c(=O)n(-c4ccccc4)c(=S)[nH]c3s2)c1 | 24.4% (inactive)
90 | Cc1cc(C)nc(/N=C2\NC(=O)CC(C(=O)O)N2c2ccc(Cl)cc2Cl)n1 (stereo not drawn) | 0.87% (inactive)
91 | COc1ccc(CNC(=O)C(CCSC)NS(=O)(=O)c2ccccc2F)cc1 (stereo not drawn) | 5.1% (inactive)
92 | CC(/C=C/c1ccco1)=N\NC(=O)c1cc(C)[nH]n1 | 12% (inactive)
93 | CCOC(=O)Cc1csc(NC(=O)COc2ccc(OC)cc2)n1 | 6.28% (inactive)
94 | O=C(CCn1c2c(c3ccccc31)CCCC2)NNC(=O)c1ccccc1[N+](=O)[O-] | 2% (inactive)
95 | COc1ccccc1C(=O)NCCN1CCN(C(=O)c2ccccc2OC)CC1 | 9.74% (inactive)
96 | COc1ccc(C(=O)/C=C/c2ccc(F)cc2)c(OC(=O)c2ccc([N+](=O)[O-])cc2)c1 | 5.11% (inactive)
97 | O=C(c1c(Cl)nc2sccn12)N1CCCc2ccccc21 | 0.11% (inactive)
98 | C=CCN1C(c2ccccc2)=CS/C1=C(\C#N)c1nnc2n1CCCCC2 | 34% (inactive)
